Experimental data published in PubChem BioAssay AID1963837 (Molecular Pharmacology Branch, DTP, NCI, 2024).

Test system: 843126-344-R-J1-PDC complex spheroid viability
Test: Anticancer human tumor 843126-344-R-J1-PDC patient-derived melanoma cell line growth inhibition [POLQ]
Details: for IC50: curve of first compound; for viability, T/C: stronger effect = lower value
Procedure: Multicellular complex tumor spheroid response to Polymerase (POL) inhibitors (novobiocin, ART-558, RP6685) in combination with a variety of drugs and investigational agents in selected tumor cell lines
The POL inhibitors (novobiocin, ART-558, and RP6685) were evaluated both individually and in combination with standard of care and investigational anticancer small molecules within a complex spheroid model of solid tumors. . Complex spheroids include a stromal component modeled by human endothelial cells (HUVEC) and fibroblasts modeled by human mesenchymal stem cells (MSCs). The concentration ranges selected for each drug and investigational agent were based upon clinically achievable concentrations if the clinical Cmax of the agent was known.
Compounds. The drugs and investigational agents: novobiocin (NSC847541), ART-558 (NSC835418), RP-6685 (NSC848927), peposertib (NSC802822), ceralasertib (NSC780249), elimusertib (NSC800525), camonsertib (NSC841442), AZD-1390 (NSC803789), olaparib (NSC753686), talazoparib (NSC767125), rucaparib (NSC756644), sotorasib (NSC818433), MRTX-1133 (NSC836407), SN-38 (NSC673596), topotecan (NSC609699), epotoside (NSC141540), doxorubicin (NSC123127), gemcitabine (NSC613327), 5-fluorouracil (NSC19893), paclitaxel (NSC125973), vemurafenib (NSC761431), MSA-2 (NSC828583), SN-011 (NSC837082), adavosertib (NSC754352), prexasertib (NSC758257), carboplatin (NSC241240) and oxaliplatin (NSC266046), were obtained from the National Cancer Institute (NCI) Developmental Therapeutics Program Chemical Repository (21). The FDA-approved anticancer drug set is available from the Developmental Therapeutics Program at https://dtp.cancer.gov/organization/dscb/obtaining/. […] The stock solutions were prepared in dimethyl sulfoxide (DMSO, Sigma-Aldrich, St. Louis, MO, cat. D2650), except for the platinum compounds which were prepared in saline (Quality Biological, Gaithersburg, MD, cat. 114-055-101), at 800-fold the tested concentration and stored at -70 degrees C prior to their use. All drugs and investigational agents were tested over a range starting from a high concentration at or near the clinical Cmax and decreasing in half-log increments. If the clinical Cmax for an agent had not been determined, the highest concentration tested was 10 microM, except for SN-38, which was tested at a high concentration of 1 microM.
Cell Culture. All cells were maintained in an incubator at 37 degrees C and 5% CO2 with 95% humidity. The PDC lines were cultured according to standard operating procedures established by the NCI PDMR (https://pdmr.cancer.gov). Table 3 of the manuscript, lists the cell lines along with the number of the three cell types plated to form the mct-spheroids and media for tumor cell growth. After thawing, all PDC lines, except 997537-175-T-J1-PDC and 415267-285-R-J2-PDC, were cultured in Matrigel-coated flasks prepared with a working solution of 1X Ham's F-12 nutrient mix, without supplementation (Thermo Fisher Scientific, cat. 11765054), 100 U/mL penicillin-streptomycin (Thermo Fisher Scientific, cat. 15140122), and 2.5% Matrigel (Corning Inc., Corning, NY, cat. 354248) for the first three passages. The two PDC lines 997537-175-T-J1-PDC and 415267-285-R-J2-PDC were cultured on uncoated flasks. The 857933-349-R-J2-PDC line was cultured in 6C/Colon 1B media containing advanced DMEM/F-12 (Thermo Fisher Scientific, cat. 12634028), 10 mM HEPES (Thermo Fisher Scientific, cat. 15630080), 1X GlutaMAX supplement (Thermo Fisher Scientific, cat. 35050061), 0.1 mg/mL primocin (InvivoGen, San Diego, CA, cat. ant-pm-2), 10% defined fetal bovine serum, heat inactivated (HyClone Laboratories Inc., Logan, UT, cat. SH30070.03HI), 50% L-WRN conditioned media (ATCC, cat. CRL-3276), 1.25 mM N-Acetyl-L-cysteine (Sigma-Aldrich, cat. A9165), 10 mM nicotinamide (Sigma-Aldrich, cat. N0636), 1X B-27 supplement (Thermo Fisher Scientific, cat. 17504044), 1X N-2 supplement (Thermo Fisher Scientific, cat. […]

[1] = second compound 0.0316 µM, first compound 0.0316 µM
[2] = second compound 0.0316 µM, first compound 0.1 µM
[3] = second compound 0.1 µM, first compound 0.0316 µM
[4] = second compound 0.1 µM, first compound 0.1 µM
[5] = second compound 0.316 µM, first compound 0.0316 µM
[6] = second compound 0.316 µM, first compound 0.1 µM
[7] = second compound 1 µM, first compound 0.0316 µM
[8] = second compound 1 µM, first compound 0.1 µM
[9] = second compound 3.16 µM, first compound 0.0316 µM
[10] = second compound 3.16 µM, first compound 0.1 µM
[11] = second compound 10 µM, first compound 0.0316 µM
[12] = second compound 10 µM, first compound 0.1 µM
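For viability, T/C in this document: spheroids exposed to drugs for seven days before readout.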

## CC[C@@]1(O)C(=O)OCc2c1cc1n(c2=O)Cc2cc3c(CN(C)C)c(O)ccc3nc2-1 + COC1C(OC(N)=O)C(O)C(Oc2ccc3c(O)c(NC(=O)c4ccc(O)c(CC=C(C)C)c4)c(=O)oc3c2C)OC1(C)C
Second compound 0.0316 µM
  IC50: > 100 nM
Second compound 0.1 µM
  IC50: 96 nM
Second compound 0.316 µM
  IC50: > 100 nM
Second compound 1 µM
  IC50: 76.9 nM
Second compound 3.16 µM
  IC50: > 100 nM
Second compound 10 µM
  IC50: > 100 nM
Second compound 0.0316 µM, first compound 0.000316 µM
  viability, T/C: 94.8%
Second compound 0.0316 µM, first compound 0.001 µM
  viability, T/C: 89.7%
Second compound 0.0316 µM, first compound 0.00316 µM
  viability, T/C: 104%
Second compound 0.0316 µM, first compound 0.01 µM
  viability, T/C: 110%
[1]
  viability, T/C: 57.3%
[2]
  viability, T/C: 52.5%
Second compound 0.1 µM, first compound 0.000316 µM
  viability, T/C: 95.7%
Second compound 0.1 µM, first compound 0.001 µM
  viability, T/C: 104%
Second compound 0.1 µM, first compound 0.00316 µM
  viability, T/C: 123%
Second compound 0.1 µM, first compound 0.01 µM
  viability, T/C: 91.4%
[3]
  viability, T/C: 78.2%
[4]
  viability, T/C: 48.7%
Second compound 0.316 µM, first compound 0.000316 µM
  viability, T/C: 114%
Second compound 0.316 µM, first compound 0.001 µM
  viability, T/C: 99.2%
Second compound 0.316 µM, first compound 0.00316 µM
  viability, T/C: 91.1%
Second compound 0.316 µM, first compound 0.01 µM
  viability, T/C: 70.9%
[5]
  viability, T/C: 91.3%
[6]
  viability, T/C: 46.6%
Second compound 1 µM, first compound 0.000316 µM
  viability, T/C: 84.5%
Second compound 1 µM, first compound 0.001 µM
  viability, T/C: 83.8%
Second compound 1 µM, first compound 0.00316 µM
  viability, T/C: 102%
Second compound 1 µM, first compound 0.01 µM
  viability, T/C: 82.4%
[7]
  viability, T/C: 61.5%
[8]
  viability, T/C: 46.6%
Second compound 3.16 µM, first compound 0.000316 µM
  viability, T/C: 92.3%
Second compound 3.16 µM, first compound 0.001 µM
  viability, T/C: 96.3%
Second compound 3.16 µM, first compound 0.00316 µM
  viability, T/C: 101%
Second compound 3.16 µM, first compound 0.01 µM
  viability, T/C: 91%
[9]
  viability, T/C: 63.2%
[10]
  viability, T/C: 54%
Second compound 10 µM, first compound 0.000316 µM
  viability, T/C: 95.5%
Second compound 10 µM, first compound 0.001 µM
  viability, T/C: 109%
Second compound 10 µM, first compound 0.00316 µM
  viability, T/C: 110%
Second compound 10 µM, first compound 0.01 µM
  viability, T/C: 119%
[11]
  viability, T/C: 74.1%
[12]
  viability, T/C: 54%

## O=C(c1cc(Cc2n[nH]c(=O)c3ccccc23)ccc1F)N1CCN(C(=O)C2CC2)CC1 + Nc1ccc(C#CCN(C(=O)Cc2ncc(C(F)(F)F)cc2C(F)(F)F)c2ccc(F)cc2)nn1
Second compound 0.0316 µM
  IC50: > 10000 nM
Second compound 0.1 µM
  IC50: > 10000 nM
Second compound 0.316 µM
  IC50: > 10000 nM
Second compound 1 µM
  IC50: > 10000 nM
Second compound 3.16 µM
  IC50: > 10000 nM
Second compound 10 µM
  IC50: > 10000 nM
[1]
  viability, T/C: 98.2%
[2]
  viability, T/C: 73.7%
Second compound 0.0316 µM, first compound 0.316 µM
  viability, T/C: 93.5%
Second compound 0.0316 µM, first compound 1 µM
  viability, T/C: 90%
Second compound 0.0316 µM, first compound 3.16 µM
  viability, T/C: 92.1%
Second compound 0.0316 µM, first compound 10 µM
  viability, T/C: 75.4%
[3]
  viability, T/C: 90.1%
[4]
  viability, T/C: 93.5%
Second compound 0.1 µM, first compound 0.316 µM
  viability, T/C: 86.9%
Second compound 0.1 µM, first compound 1 µM
  viability, T/C: 91.3%
Second compound 0.1 µM, first compound 3.16 µM
  viability, T/C: 82.7%
Second compound 0.1 µM, first compound 10 µM
  viability, T/C: 67.1%
[5]
  viability, T/C: 102%
[6]
  viability, T/C: 98%
Second compound 0.316 µM, first compound 0.316 µM
  viability, T/C: 84%
Second compound 0.316 µM, first compound 1 µM
  viability, T/C: 84.1%
Second compound 0.316 µM, first compound 3.16 µM
  viability, T/C: 90.7%
Second compound 0.316 µM, first compound 10 µM
  viability, T/C: 80.2%
[7]
  viability, T/C: 93.1%
[8]
  viability, T/C: 93.9%
Second compound 1 µM, first compound 0.316 µM
  viability, T/C: 84.3%
Second compound 1 µM, first compound 1 µM
  viability, T/C: 88.9%
Second compound 1 µM, first compound 3.16 µM
  viability, T/C: 84.2%
Second compound 1 µM, first compound 10 µM
  viability, T/C: 76.8%
[9]
  viability, T/C: 92.7%
[10]
  viability, T/C: 93.7%
Second compound 3.16 µM, first compound 0.316 µM
  viability, T/C: 85.8%
Second compound 3.16 µM, first compound 1 µM
  viability, T/C: 92.2%
Second compound 3.16 µM, first compound 3.16 µM
  viability, T/C: 80.6%
Second compound 3.16 µM, first compound 10 µM
  viability, T/C: 82.6%
[11]
  viability, T/C: 80.7%
[12]
  viability, T/C: 85.5%
Second compound 10 µM, first compound 0.316 µM
  viability, T/C: 88%
Second compound 10 µM, first compound 1 µM
  viability, T/C: 92.7%
Second compound 10 µM, first compound 3.16 µM
  viability, T/C: 81.3%
Second compound 10 µM, first compound 10 µM
  viability, T/C: 68.7%
